Assay results: patent publication EP3858818A1, “TRIKETONE COMPOUND, PREPARATION METHOD THEREFOR AND USE THEREOF, AND HERBICIDE” (Shandong Cynda Chemical Co., LTD., priority 2018, dated 2020)

Columns and labels:
Type in all cases: in vivo
Setaria viridis [1] = assay: Re-screen assay at low dose (pot-culture method); details: post-emergence spray, 30 days
From the text: (§1) Preliminary screening test (pot-culture method): the targets of the test are Echinochloa crusgalli, Digitaria sanguinalis, Setaria viridis, Amaranthus tricolor, Chenopodium album, Abutilontheophrasti. Spraying the stems and leaves after seedlings: taking a paper cup with an inner diameter of 7 cm and fill it with composite soil (vegetable garden soil: seedling substrate, 1: 2, v/v) to 3/4 of the cup. Sowing weeds directly, cover it with 0.2 cm soil and wait until it grows to 4-5 leaves stage for later use. The compounds of the invention and the aforementioned comparative compound D1 are applied in an automatic spray tower at a dose of 150 g.a.i/ha (g/ha). After the liquid on the crop leaves is dried in the air, the crops are transferred to the greenhouse for cultivation (humidity 70%), and the results were investigated after 30 days.
(§2) The growth inhibition rate evaluation method is a visual method. The growth inhibition rate is rated specifically according to the conditions shown in table 2, and the test results are shown in Table 3.
(§3) The same method as in test example 1 is used to conduct re-screen assays at the low dose for representative compounds, and the results are shown in Table 4.

Alopecurus aequalis = assay: Re-screen assay at low dose (pot-culture method); details: post-emergence spray, 30 days
From the text: as §1, §2, §3

Aegilops squarrosa = assay: Re-screen assay at low dose (pot-culture method); details: post-emergence spray, 30 days
From the text: as §1, §2, §3

Echinochloa crusgalli [2] = assay: Re-screen assay at low dose (pot-culture method); details: post-emergence spray, 30 days
From the text: as §1, §2, §3

Alopecurus japonicus = assay: Re-screen assay at low dose (pot-culture method); details: post-emergence spray, 30 days
From the text: as §1, §2, §3

Avena fatua = assay: Re-screen assay at low dose (pot-culture method); details: post-emergence spray, 30 days
From the text: as §1, §2, §3

Bromus japonicus = assay: Re-screen assay at low dose (pot-culture method); details: post-emergence spray, 30 days
From the text: as §1, §2, §3

Digitaria sanguinalis [3] = assay: Re-screen assay at low dose (pot-culture method); details: post-emergence spray, 30 days
From the text: as §1, §2, §3

[4] = test system: Aegilops squarrosa, Avenafatua, Bromus japonicus, Alopecurus aequalis, and Alopecurus japonicus; assay: Re-screening with reduced concentration, summary in text for gramineous weeds of wheat fields; details: at three application concentrations (120, 60, 30 g.a.i/ha); result in words
Setaria viridis [5] = assay: Preliminary screening test (pot-culture method), post-emergence stem and leaf spray; details: 150 g.a.i/ha; stems and leaves sprayed at 4-5 leaves stage; investigated after 30 days; visual rating
From the text: as §1, §2

Amaranthus tricolor = assay: as above; details: 150 g.a.i/ha; stems and leaves sprayed at 4-5 leaves stage; investigated after 30 days; visual rating
From the text: as §1, §2

Abutilon theophrasti = assay: as above; details: 150 g.a.i/ha; stems and leaves sprayed at 4-5 leaves stage; investigated after 30 days; visual rating
From the text: as §1, §2

Echinochloa crusgalli [6] = assay: as above; details: 150 g.a.i/ha; stems and leaves sprayed at 4-5 leaves stage; investigated after 30 days; visual rating
From the text: as §1, §2

Chenopodium album = assay: as above; details: 150 g.a.i/ha; stems and leaves sprayed at 4-5 leaves stage; investigated after 30 days; visual rating
From the text: as §1, §2

Digitaria sanguinalis [7] = assay: as above; details: 150 g.a.i/ha; stems and leaves sprayed at 4-5 leaves stage; investigated after 30 days; visual rating
From the text: as §1, §2

## Cc1cccc(C)c1-n1c(=O)c2cc(C(=O)C3=C(O)CCCC3=O)ccc2n(C)c1=O [Compound D1]
Setaria viridis [1]; 30 g.a.i/ha
  Inhibition Level Setaria viridis: 3 (weeds or crops are subject to severe growth inhibition.)
Setaria viridis [1]; 60 g.a.i/ha
  Inhibition Level Setaria viridis: 3 (weeds or crops are subject to severe growth inhibition.)
Setaria viridis [1]; 120 g.a.i/ha
  Inhibition Level Setaria viridis: 4 (weeds or crops die.)
Alopecurus aequalis; 30 g.a.i/ha
  Inhibition Level Alopecurus aequalis: 0 (has no influence on the growth of weeds or crops and has no drug effect symptom.)
Alopecurus aequalis; 60 g.a.i/ha
  Inhibition Level Alopecurus aequalis: 0 (has no influence on the growth of weeds or crops and has no drug effect symptom.)
Alopecurus aequalis; 120 g.a.i/ha
  Inhibition Level Alopecurus aequalis: 1 (slightly affects the growth of weeds or crops, and has no obvious drug effect symptom.)
Aegilops squarrosa; 30 g.a.i/ha
  Inhibition Level Aegilops squarrosa: 0 (has no influence on the growth of weeds or crops and has no drug effect symptom.)
Aegilops squarrosa; 60 g.a.i/ha
  Inhibition Level Aegilops squarrosa: 1 (slightly affects the growth of weeds or crops, and has no obvious drug effect symptom.)
Aegilops squarrosa; 120 g.a.i/ha
  Inhibition Level Aegilops squarrosa: 2 (has certain effect on weed or crop growth, and has obvious drug effect.)
Echinochloa crusgalli [2]; 30 g.a.i/ha
  Inhibition Level Echinochloa crusgalli: 3 (weeds or crops are subject to severe growth inhibition.)
Echinochloa crusgalli [2]; 60 g.a.i/ha
  Inhibition Level Echinochloa crusgalli: 3 (weeds or crops are subject to severe growth inhibition.)
Echinochloa crusgalli [2]; 120 g.a.i/ha
  Inhibition Level Echinochloa crusgalli: 4 (weeds or crops die.)
Alopecurus japonicus; 30 g.a.i/ha
  Inhibition Level Alopecurus japonicus: 0 (has no influence on the growth of weeds or crops and has no drug effect symptom.)
Alopecurus japonicus; 60 g.a.i/ha
  Inhibition Level Alopecurus japonicus: 0 (has no influence on the growth of weeds or crops and has no drug effect symptom.)
Alopecurus japonicus; 120 g.a.i/ha
  Inhibition Level Alopecurus japonicus: 0 (has no influence on the growth of weeds or crops and has no drug effect symptom.)
Avena fatua; 30 g.a.i/ha
  Inhibition Level Avena fatua: 0 (has no influence on the growth of weeds or crops and has no drug effect symptom.)
Avena fatua; 60 g.a.i/ha
  Inhibition Level Avena fatua: 0 (has no influence on the growth of weeds or crops and has no drug effect symptom.)
Avena fatua; 120 g.a.i/ha
  Inhibition Level Avena fatua: 2 (has certain effect on weed or crop growth, and has obvious drug effect.)
Bromus japonicus; 30 g.a.i/ha
  Inhibition Level Bromus japonicus: 0 (has no influence on the growth of weeds or crops and has no drug effect symptom.)
Bromus japonicus; 60 g.a.i/ha
  Inhibition Level Bromus japonicus: 0 (has no influence on the growth of weeds or crops and has no drug effect symptom.)
Bromus japonicus; 120 g.a.i/ha
  Inhibition Level Bromus japonicus: 0 (has no influence on the growth of weeds or crops and has no drug effect symptom.)
Digitaria sanguinalis [3]; 30 g.a.i/ha
  Inhibition Level Digitaria sanguinalis: 3 (weeds or crops are subject to severe growth inhibition.)
Digitaria sanguinalis [3]; 60 g.a.i/ha
  Inhibition Level Digitaria sanguinalis: 3 (weeds or crops are subject to severe growth inhibition.)
Digitaria sanguinalis [3]; 120 g.a.i/ha
  Inhibition Level Digitaria sanguinalis: 4 (weeds or crops die.)
[4]
  herbicidal activity on gramineous weeds in wheat fields: hardly shows herbicidal activity
Setaria viridis [5]
  Inhibition Level Setaria viridis: 4 (weeds or crops die.)
Amaranthus tricolor
  Inhibition Level Amaranthus tricolor: 4 (weeds or crops die.)
Abutilon theophrasti
  Inhibition Level Abutilon theophrasti: 4 (weeds or crops die.)
Echinochloa crusgalli [6]
  Inhibition Level Echinochloa crusgalli: 4 (weeds or crops die.)
Chenopodium album
  Inhibition Level Chenopodium album: 5 (weeds or crops die completely.)
Digitaria sanguinalis [7]
  Inhibition Level Digitaria sanguinalis: 4 (weeds or crops die.)
